Test results published in patent US20110184188A1, “Insecticidal Benzenedicarboxamide Derivative” (priority 2008, published 2011).
Read-outs that look alike come from different tables or passages of the source.

Key:
[1] = logP(neutral) by reverse phase chromatography, potassium dihydrogen phosphate / acetonitrile; format: physicochemical
Myzus persicae = assay: Test to Myzus persicae (Brassica pekinensis leaf disc spray); format: in vivo; conditions: foliar, read-out: pesticide effect, insect mortality
Method: Solvent: acetone 78.0 parts by weight and dimethylformamide 1.5 parts by weight Emulsifier: alkyl aryl polyglycol ether 0.5 parts by weight
(§1) In order to prepare preparations of suitable active compounds, 1 part by weight of each of the active compounds was blended with the above amount of the solvent containing the above amount of the emulsifier, and the resulting mixture was diluted to a prescribed concentration with water.
On a leaf disc of Brassica pekinensis, Myzus persicae including all growth stage was inoculated. The solution diluted with water and having a prescribed concentration of the active compound was sprayed by a spray gun. Insect mortality was calculated after prescribed days elapsed. 100% insect mortality means that all the individuals died, and 0% insect mortality means that all the individuals were alive.

[2] = system: Spodoptera litura third instar larvae; assay: Test to larva of Spodoptera litura (sweet potato leaf dip); format: in vivo; conditions: foliar, 168 h, read-out: insect mortality
Method: Test to Larva of Spodoptera litura
(§2) Solvent: dimethylformamide 3 parts by weight Emulsifier: polyoxyethylene alkyl phenyl ether 1 part by weight
as §1
Leaves of sweet potato were immersed in the tested liquid medication of a prescribed concentration diluted with water. After air drying of the liquid medication, the leaves were put into a petri dish of a diameter of 9 cm, and 10 Spodoptera litura third instar larvae were released in the petri dish, and the petri dish was placed in a constant temperature room of 25° C. Two days later and four days later, leaves of sweet potato were added. Seven days later, the number of dead insects was examined, and insect mortality was calculated.
In the present test, results of 2 petri dishes for each compound were averaged.

[3] = system: Myzus persicae resistant to organophosphorus pesticide and carbamate agent; assay: Test to Myzus persicae resistant to organophosphorus pesticide and carbamate agent (egg plant seedlings); format: in vivo; conditions: 168 h, effective ingredient concentration 100 ppm, seven days after spraying, read-out: pesticide effect, insect mortality
Method: Test to Myzus persicae resistant to organophosphorus pesticide and carbamate agent
as §2, §1
On egg plant seedlings planted in a plastic pot of a diameter of 6 cm, 30 bred Myzus persicae resistant to organophosphorus pesticide and carbamate agent per one seedling were inoculated. After 1 day elapsed since the inoculation, a sufficient amount of the solution diluted with water and having a prescribed concentration of the active compound was sprayed. After the spraying, the pot was allowed to stand in a greenhouse of 28° C. After seven days elapsed since the spraying, insect mortality was calculated. The test was carried out twice.

Musca domestica = assay: Test to Musca domestica (adults, sugar sponge); format: in vivo; conditions: effective ingredient concentration 100 ppm, read-out: insecticide activity (mortality)
Method: (§3) Solvent: dimethylsulfoxide
(§4) In order to prepare preparations of suitable active compounds, 10 mg of each of the active compounds was dissolved into 0.5 ml of the above solvent, and the resulting mixture was diluted to a prescribed concentration with water.
As a preparative stage of the test, a fixed size of sponge was soaked in a mixture of sugar and the compound aqueous solution prepared in the above, and was placed in a test container. Ten adults of Musca domestica were put into the container, and the container was closed with a cap having ventilation holes. After a fixed time passed, a mortality rate of Musca domestica was acquired. 100% mortality means that all the individuals were dead, and 0% mortality means that all the individuals were alive.

Lucilia cuprina = assay: Test to Lucilia cuprina (larvae on horse minced meat); format: in vivo; conditions: effective ingredient concentration 100 ppm, read-out: insecticide activity (mortality)
Method: as §3, §4
About 20 to 30 larvae of Lucilia cuprina were put into the test tube in which 1 cm^3 of horse minced meat and 0.5 ml of the aqueous solution of the compound prepared in the above were put. After a fixed time passed, the mortality of the Lucilia cuprina was obtained. 100% mortality means that all the individuals were dead, and 0% mortality means that all the individuals were alive.

[4] = potassium dihydrogen phosphate / acetonitrile
[5] = 0.0025M potassium dihydrogen phosphate aqueous solution / acetonitrile, linear gradient 10-95% acetonitrile
[6] = Spodoptera litura third instar larvae, active ingredient concentration 20 ppm, seven days later, 25° C.

Work on `CC(C)NC(=O)c1ccccc1C(=O)Nc1ccc(Cn2nc(C(F)(F)F)cc2C(F)(F)F)cc1` yielded a melting point of 176 to 178 °C.
`CCC(C)NC(=O)c1c(Cl)cccc1C(=O)Nc1ccc(Cn2nc(C(F)(F)F)cc2C(F)(F)F)cc1C` (stereo not shown) gave a melting point of 187 to 188 °C.
For `CSC[C@H](C)NC(=O)c1c(Cl)cccc1C(=O)Nc1ccc(Cn2nc(C(F)(F)F)n(C)c2=O)nc1C` [14-320], the “logP (neutral)” value [1, 4] was 2.16.
For `CSC[C@H](C)NC(=O)c1c(C(=O)Nc2ccc(Cn3nc(C(F)(F)F)cc3C(F)(F)F)nc2C)ccc(F)c1Br` [9-10], the “logP (neutral)” value [1, 5] was “logP (neutral) 3.74”.
In the case of `CSC[C@H](C)NC(=O)c1c(C#N)cccc1C(=O)Nc1ccc(Cn2nc(C(F)(F)F)cc2C(F)(F)F)cc1C` [13-172, N^1-(4-{[3,5-bis(trifluoromethyl)-1H-pyrazol-1-yl]methyl}-2-methylphenyl)-3-cyano-N^2-[(1S)-1-methyl-2-(methylthio)ethyl]-1,2-benzenedicarboxamide], the mortality at 100 g/ha (Myzus persicae) was no less than 70%, the mortality at 20 ppm ([2]; Spodoptera litura) was 100% and the mortality at 100 ppm [3] was 100%.
With `CSC[C@H](C)NC(=O)c1c(C(=O)Nc2ccc(Cn3nc(C(F)(F)F)cc3C(F)(F)F)nc2C)cccc1S(=O)(=O)N(C)C` [13-287] the “logP (neutral)” value [1, 4] was 3.42.
`CSC[C@H](C)NC(=O)c1c(Br)cccc1C(=O)Nc1ccc(Cn2cc(C(F)(F)C(F)(F)F)c(C(F)(F)C(F)(F)F)n2)cc1C` [13-132, N^1-(4-{[3,4-bis(pentafluoroethyl)-1H-pyrazol-1-yl]methyl}-2-methylphenyl)-3-bromo-N^2-[(1S)-1-methyl-2-(methylthio)ethyl]-1,2-benzenedicarboxamide] gave a mortality at 100 ppm (Musca domestica) of no less than 70%, a mortality at 20 ppm [2, 6] of 100% and a mortality at 100 ppm (Lucilia cuprina) of no less than 80%.
`Cc1cc(Cn2nc(C(F)(F)F)cc2C(F)(F)F)ccc1NC(=O)c1ccccc1C(=O)NC(C)C` gave a melting point of 170 to 172 °C.
Molecule `Cc1cc(Cn2nc(C(F)(F)C(F)(F)F)nc2C(F)(F)F)ccc1NC(=O)c1cccc(-c2cc(C(F)(F)F)cc(C(F)(F)F)c2)c1C(=O)N[C@@H](C)CS(C)(=O)=O` has a melting point of 201 °C.
`Cc1cc(Cn2nc(C(F)(F)C(F)(F)F)nc2C(F)(F)F)ccc1NC(=O)c1cccc(Cl)c1C(=O)NC(C)(C)C=NO` gave a melting point of 203 to 206 °C.
With `Cc1nc(Cn2nc(C(F)(F)F)cc2C(F)(F)F)ccc1NC(=O)c1cc(Cl)cc(Cl)c1C(=O)N[C@@H](C)CS(C)(=O)=O` [10-3] the “logP (neutral)” value [1, 4] was 3.10.
In the case of `CCSC[C@H](C)NC(=O)c1c(SC)cccc1C(=O)Nc1ccc(Cn2nc(C(F)(F)F)cc2C(F)(F)F)cc1C` [13-291, N^1-(4-{[3,5-bis(trifluoromethyl)-1H-pyrazol-1-yl]methyl}-2-methylphenyl)-N^2-[(1S)-1-methyl-2-(ethylthio)ethyl]-3-methylthio-1,2-benzenedicarboxamide], the mortality at 100 g/ha (Myzus persicae; spraying amount 100 g/ha) was no less than 70% and the mortality at 20 ppm [2, 6] was 100%.
`CSC[C@H](C)NC(=O)c1c(Cl)cccc1C(=O)Nc1ccc(CN2N=C(C(F)(F)C(F)(F)F)NC2C(F)(F)F)cc1C` (stereo partly drawn) [16-4, 3-chloro-N^1-(2-methyl-4-{[3-(pentafluoroethyl)-5-(trifluoromethyl)-4,5-dihydro-1H-1,2,4-triazol-1-yl]methyl}phenyl)-N^2-[(1S)-1-methyl-2-(methylthio)ethyl]-1,2-benzenedicarboxamide] showed a mortality at 20 ppm ([2]; Spodoptera litura) of 100% and a mortality at 100 ppm [3] of 100%.
`Cc1cc(Cn2cc(C(F)(F)C(F)(F)F)c(C(F)(F)C(F)(F)F)n2)ccc1NC(=O)c1cccc(Br)c1C(=O)N[C@@H](C)C[S+](C)[O-]` (stereo partly drawn) [13-137, N^1-(4-{[3,4-bis(pentafluoroethyl)-1H-pyrazol-1-yl]methyl}-2-methylphenyl)-3-bromo-N^2-[(1S)-1-methyl-2-(methylsulfinyl)ethyl]-1,2-benzenedicarboxamide] gave a mortality at 100 ppm (Musca domestica) of no less than 70%, a mortality at 20 ppm [2, 6] of 100% and a mortality at 100 ppm (Lucilia cuprina) of no less than 80%.
`CSC[C@H](C)NC(=O)c1c(Cl)cccc1C(=O)Nc1ccc(Cn2c(C)nnc2C(F)(F)F)cc1C` showed a melting point of 168 to 170 °C.
For `Cc1cc(Cn2nc(C(F)(F)C(F)(F)F)nc2C(F)(F)F)ccc1NC(=O)c1c(Cl)ccc(Cl)c1C(=O)N[C@@H](C)C[S+](C)[O-]` (stereo partly shown) [11-28], the “logP (neutral)” value [1, 4] was “logP (neutral) 2.90”.
With `Cc1cc(Cn2nc(C(F)(F)C(F)(F)F)nc2C(F)(F)F)ccc1NC(=O)c1ccc(C(F)(F)F)c(Cl)c1C(=O)N[C@@H](C)C[S+](C)[O-]` (stereo partly shown) [9-24] the “logP (neutral)” value [1, 5] was “logP (neutral) 3.13”.
In the case of `Cc1cc(Cn2nc(C(F)(F)C(F)(F)F)nc2C(F)(F)F)ccc1NC(=O)c1cccc(Cl)c1C(=O)NC(C)(C)CO`, the melting point was 105 to 110 °C.
`Cc1cc(Cn2cc(C(F)(F)C(F)(F)F)c(C(F)(F)C(F)(F)F)n2)ccc1NC(=O)c1cccc(Br)c1C(=O)N[C@@H](C)CS(C)(=O)=O` [13-140, N^1-(4-{[3,4-bis(pentafluoroethyl)-1H-pyrazol-1-yl]methyl}-2-methylphenyl)-3-bromo-N^2-[(1S)-1-methyl-2-(methylsulfonyl)ethyl]-1,2-benzenedicarboxamide] showed a mortality at 20 ppm [2, 6] of 100%.
With `CSC[C@H](C)NC(=O)c1c(Br)cccc1C(=O)Nc1ccc(Cn2nc(C(F)(F)C(F)(F)C(F)(F)F)cc2C(F)(F)F)nc1C` [13-128] the “logP (neutral)” value [1, 4] was 4.42.
For `CON=C(c1cn(Cc2ccc(NC(=O)c3cccc(I)c3C(=O)N[C@@H](C)CSC)c(C)c2)nc1C(F)(F)F)C(F)(F)F` [13-147, 3-iodo-N^2-[(1S)-1-methyl-2-(methylthio)ethyl]-N^1-[2-methyl-4-({4-[2,2,2-trifluoro-N-methoxyethanimidoyl]-3-(trifluoromethyl)-1H-pyrazol-1-yl}methyl)phenyl]-1,2-benzenedicarboxamide], the mortality at 20 ppm [2, 6] was 100%.
In the case of `CCC(C)NC(=O)c1cccc(Cl)c1C(=O)Nc1ccc(Cn2nc(C(F)(F)F)cc2C(F)(F)F)cc1C` (stereo not shown), the melting point was 211 to 212 °C.
Molecule `CSC[C@H](C)NC(=O)c1c(OC(F)(F)F)cccc1C(=O)Nc1ccc(Cn2nc(C(F)(F)F)cc2C(F)(F)F)cc1C` [13-13, N^1-(4-{[3,5-bis(trifluoromethyl)-1H-pyrazol-1-yl]methyl}-2-methylphenyl)-N^2-[(1S)-1-methyl-2-(methylthio)ethyl]-3-(trifluoromethoxy)-1,2-benzenedicarboxamide] has a mortality at 100 g/ha (Myzus persicae) of no less than 70%, a mortality at 20 ppm ([2]; Spodoptera litura) of 100% and a mortality at 100 ppm [3] of 100%.
`COC(=O)CNC(=O)C(C)(C)NC(=O)c1c(Cl)cccc1C(=O)Nc1ccc(Cn2nc(C(F)(F)F)cc2C(F)(F)F)cc1C` [13-121, methyl N-{2-[(4-{[3,5-bis(trifluoromethyl)-1H-pyrazol-1-yl]methyl}-2-methylphenyl)carbamoyl]-6-chlorobenzoyl)-2-methylalanyl glycinate] gave a mortality at 20 ppm [2, 6] of 100%.
In the case of `CCN(CC)C(=O)c1c(Cl)cccc1C(=O)Nc1ccc(Cn2nc(C(F)(F)F)cc2C(F)(F)F)cc1C`, the melting point was 105 to 107 °C.
Work on `Cc1cc(Cn2nc(C(F)(F)F)cc2C(F)(F)F)ccc1NC(=O)c1cccc(Cl)c1C(=O)NC(C)(C)C(=O)O` yielded a melting point of 179 to 184 °C.
For `Cc1nc(Cn2cc(C(F)(F)C(F)(F)F)c(C(F)(F)C(F)(F)F)n2)ccc1NC(=O)c1cccc(I)c1C(=O)NC(C)C[S+](C)[O-]` (mixture of isomers) [13-159], the “logP (neutral)” value [1, 4] was 3.08.
